From article PMC5059758, “Structural characterization of antibiotic self-immunity tRNA synthetase in plant tumour biocontrol agent” (Nature Communications, 2016)

How the values were obtained:
wt AgnB2 (LeuRS) [1] = biological target: T1, wt AgnB2 (LeuRS) (Agrobacterium radiobacter, UniProt B9JQP8); assay: ATP/PPi exchange assay (amino acid activation), AgnB2; settings: 28 °C, pH 7.4
Procedure: The formation of Leu-AMP by ATP/PPi exchange assays was performed as described earlier[23][50]. Briefly, the reaction buffer contained 50 mM HEPES buffer (pH 7.4), 20 mM KCl, 10 mM MgCl2, 500 μM L-leucine, 4 mM ATP, 1 mM tetrasodium pyrophosphate (NaPPi), 10 μCi/mmol [^32P] NaPPi and 1 μM bovine serum albumin (BSA). The reaction was initiated by addition of 1–4 nM of active enzyme and incubated at 28 °C. Aliquots (5 μl each) were collected over 30 min and quenched in a 10% charcoal slurry containing 0.5% HCl and 50 μl of 200 mM sodium pyrophosphate in 1 M HCl. Liquid scintillation counting was then used to measure the amount of [^32P]-PPi incorporation into ATP that was adsorbed onto the charcoal.

LeuRSAt [2] = biological target: T2, LeuRSAt (Agrobacterium tumefaciens, UniProt Q8UBV2); assay: ATP/PPi exchange assay (amino acid activation), LeuRSAt; format: biochemical, A. tumefaciens; settings: 28 °C, pH 7.4
Procedure: The formation of Leu-AMP by ATP/PPi exchange assays was performed as described earlier. Briefly, the reaction buffer contained 50 mM HEPES buffer (pH 7.4), 20 mM KCl, 10 mM MgCl2, 500 μM L-leucine, 4 mM ATP, 1 mM tetrasodium pyrophosphate (NaPPi), 10 μCi/mmol [^32P] NaPPi and 1 μM bovine serum albumin (BSA). The reaction was initiated by addition of 1–4 nM of active enzyme and incubated at 28 °C. Aliquots (5 μl each) were collected over 30 min and quenched in a 10% charcoal slurry containing 0.5% HCl and 50 μl of 200 mM sodium pyrophosphate in 1 M HCl. Liquid scintillation counting was then used to measure the amount of [^32P]-PPi incorporation into ATP that was adsorbed onto the charcoal.

[3] = system: LeuRSAt (leucyl-tRNA synthetase); settings: aminoacylation, substrate, 28 °C, pH 7.4; cited from earlier work
wt AgnB2 (LeuRS) [4] = biological target: T1, wt AgnB2 (LeuRS); assay: Aminoacylation assay, wt AgnB2; settings: pH 7.4
Procedure: Aminoacylation activities of AgnB2, LeuRSAt and their mutants were measured in 50 mM HEPES buffer (pH 7.4) containing 20 mM KCl, 25 mM MgCl2, 25 mM β-ME, 4 mM ATP, 500 μM [3,4,5-^3H] L-leucine (20 μCi/mmole), 5 μg/ml inorganic pyrophosphatase, 1 μM BSA, 10 μM of active in vitro transcribed tRNA^Leu and enzymes in the range of 2–8 nM. Reactions were pre-incubated with or without substrate and/or inhibitor and then carried out at 28 °C (37 °C-LeuRSHp). Aliquots of the reaction (5–10 μl) were quenched on 3 mM filter pads (Whatman, GE Healthcare) presoaked with 5% trichloroacetic acid (TCA). The pads were washed thrice with 5% TCA and 90% ethanol at 4 °C and then dried. The amount of Leu-tRNA^Leu was then quantified using scintillation counting. Each reaction was performed in triplicate and analyzed using Kaleidagraph (for Km and kcat determinations) or GraphPad Prism software (for IC50 determination).

LeuRSAt [5] = biological target: T2, LeuRSAt; assay: Isothermal titration calorimetry, LeuRSAt; set-up: species or system A. tumefaciens; settings: ITC, Leu-AMS binding to LeuRSAt
Procedure: (§1) Typically, about 4–8 μM active protein solution and a 10-fold higher ligand concentration were prepared in buffer containing 50 mM HEPES (pH 7.4), 20 mM KCl 10 mM MgCl2 and 1 mM β-ME. The titrations were carried out in triplicate at 28 °C. The data was then analyzed using Origin software (version 7) and fitted to a one-site or a two-site binding model to obtain the binding affinity (Kd), stoichiometry (N) and enthalpy (ΔH) for each complex.

wt AgnB2 (LeuRS) [6] = biological target: T1, wt AgnB2 (LeuRS); assay: Isothermal titration calorimetry, wt AgnB2; format: binding, Agrobacterium radiobacter K84; settings: ITC, ligand binding to AgnB2 alone, 28 °C, pH 7.4; read-out: Kd
Procedure: as §1

[7] = aminoacylation, substrate, 28 °C

Compound	Km (wt AgnB2 (LeuRS) [1]; ATP-PPi exchange, substrate)	kcat (wt AgnB2 (LeuRS) [1]; ATP-PPi exchange, substrate)	Km (LeuRSAt [2]; ATP-PPi exchange, substrate)	kcat (LeuRSAt [2]; ATP-PPi exchange, substrate)	Km [3]	kcat [3]	Km (wt AgnB2 (LeuRS) [4]; [7])	kcat (wt AgnB2 (LeuRS) [4]; [7])	Kd (LeuRSAt [5])	inhibition of amino acid activation (Leu-AMP formation) (wt AgnB2 (LeuRS) [1]; 25 nM Leu-AMS, 1 nM enzyme)	inhibition of Leu-AMP formation (LeuRSAt [2]; 25 nM Leu-AMS, 1 nM enzyme)	Kd (wt AgnB2 (LeuRS) [6])	inhibition of overall aminoacylation reaction (wt AgnB2 (LeuRS) [4]; 20 nM Leu-AMS, 2 nM wt AgnB2, 28 °C)
Nc1ncnc2c1ncn2[C@@H]1O[C@H](COP(=O)(O)OP(=O)(O)OP(=O)(O)O)[C@@H](O)[C@H]1O [ATP]	1050 ± 140 µM	67 ± 8.9 s⁻¹	357 ± 22 µM	87 ± 1.5 s⁻¹	396 ± 83 µM	0.33 ± 0.02 s⁻¹	95.4 ± 18.3 µM	0.43 ± 0.02 s⁻¹					
CC(C)CC(N)C(=O)NS(=O)(=O)OCC1OC(n2cnc3c(N)ncnc32)C(O)C1O (stereo not drawn) [Leu-AMS, reference compound]									1.6 nM	potently inhibits	potently inhibits	4.4 nM	potently inhibited
CC(C)C[C@H](N)C(=O)O [Leucine]					38 ± 3.2 µM	0.38 ± 0.01 s⁻¹							
